From patent EP4772500A1, “NOVEL ISOXAZOLE COMPOUND AS TM4SF5-SPECIFIC INHIBITOR AND USE THEREOF” (Seoul National University R&DB Foundation, priority 2023, dated 2025)

Experiments:
TM4SF5 = biological target: T1, TM4SF5 (Homo sapiens, UniProt O14894); test: 1,2-3H-Cholesterol binding to pulled-down TM4SF5; parameters: expressed in transfected cells; captured on streptavidin agarose; details: 1,2-3H-Cholesterol (50 µM); for binding of TM4SF5 to cholesterol: drug 2.5 µM, 1 hour (FIG. 19c); for IC50: Huh7KO Strep-TM4SF5 (FIG. 19e), read-out: concentration at which binding between TM4SF5 and cholesterol was reduced by 50%
T1 sequence (O14894 1-197): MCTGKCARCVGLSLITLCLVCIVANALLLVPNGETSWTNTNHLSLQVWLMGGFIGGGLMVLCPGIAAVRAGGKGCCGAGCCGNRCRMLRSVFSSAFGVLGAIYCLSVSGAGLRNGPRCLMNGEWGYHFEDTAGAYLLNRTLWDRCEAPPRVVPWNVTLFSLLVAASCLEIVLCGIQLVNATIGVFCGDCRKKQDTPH
Procedure: (a) Expression vectors for a control vector, TM4SF1, TM4SF5 WT, and R113Q, C118/145A, H127A, and N138A mutants of TM4SF5 were injected into the HEK293FT cell line, which was confirmed not to express TM4SF5, and allowed to express for 48 hours. (b) Huh7KO cell lines, in which TM4SF5 was knocked out in Huh7, were stably infected with a retrovirus encoding pBabe-EV or pBabe-TM4SF5-HA. […] (d) Strep-EV, Strep-PD-L1 WT, and 3NQ (N192/200/219Q) and 4NQ (N35/192/200/219Q) N-glycosylation mutants were injected into Huh7 cells to be expressed. (e) Strep-EV and Strep-TM4SF5 expression vectors were injected into Huh7KO cells and allowed to express for 48 hours. (a-e) After obtaining cell extracts, TM4SF5-strep, TM4SF5-HA, or PD-L1-strep was pulled down with streptavidin agarose resin or anti-HA antibody from extracts containing 0.2, 0.25, or 1.0 mg of protein for each experimental condition. Each of the pulled-down beads was treated with ^14C-labelled ST-5-002 (10, 25, or various indicated concentrations, µM) for 1 hour in the presence or absence of 400 µM of cold ST-5-002 (a-b). Alternatively, they were treated with 1,2-^3H-Cholesterol (50 µM) alone or together with ST-3-001 (negative control compound), ST-5-001, or ST-5-002 (2.5 µM each) for 1 hour (c-e). For the experimental samples of each condition, radioactive isotope values were repeatedly measured using a TriCarb scintillation counter (PerkinElmer, Waltham, MA).

TM4SF5 and SLAMF7 = biological target: T2, TM4SF5 and SLAMF7 (Homo sapiens, UniProt O14894); test: Streptavidin pulldown: binding between TM4SF5 and SLAMF7; format: cell-based
T2 construct: expressed in transfected cells; host or cells: SNU761 human hepatocellular carcinoma cells
T2 sequence (O14894 1-197): T1 sequence (O14894 1-197)
Procedure: Cells were cultured to ~60% density in a cell incubator at 37°C and 5% CO2, and then transfected using PEI and cultured in a cell incubator at 37°C for two days. After cultivation, cell extracts were obtained by the method described above. After precipitating a desired protein from the cell extracts using an immunoprecipitation method, the binding proteins were identified by the Western blot technique described above. Specifically, cells cultured in a 100 mm cell culture dish for two days were washed twice with PBS, and protease inhibitor cocktails (GenDepot, USA) were added to 500 µl of immunoprecipitation lysis buffer (0.5% Triton X-100 or Brij 58, 40 mM HEPES, 150 mM NaCl, 1 mM EDTA, pH 7.4), followed by treatment at 4°C for 15 minutes. After collecting the cells, centrifugation was performed at 12,000x g at 4°C for 15 minutes, and the supernatant was transferred to a new microcentrifuge tube to obtain a cell extract. Proteins therein were quantified using a BCA reagent (Thermo Scientifics, USA). An electrophoresis sample was prepared by adding 4x laemmli sample buffer to a portion of the quantified sample and boiling at 100°C for 5 minutes. For immunoprecipitation, Streptavidin Agarose Resin (Thermo Fisher Scientific) or anti-HA antibody-coated Sepharose beads were added in proportion to the quantified protein amount, followed by rotation at 4°C for 4 hours, and then centrifugation was performed at 7,000x g at 4°C for 5 minutes and the supernatant was discarded. […] (f) After treating NK92-EV or NK92-TM4SF5 cells with DMSO or drugs ST-2-001 (1 nM), ST-3-005 (10 nM or 1 µM), ST-5-001, or ST-5-002 (100 nM or 1 µM) for 24 hours, the expression of SLAMF7 expressed on the cell surface was analyzed through immunostaining using flow cytometry. The expression level of SLAMF7 was confirmed by adding a SLAMF7 antibody to bind with SLAMF7 and then measuring the fluorescence linked to the SLAMF7 antibody using flow cytometry. […]

[1] = SNU761 expressing TM4SF5-Strep and FLAG-SLAMF7, 24 hours, brij58 lysis (FIG. 15e-f)

Structure (SMILES): COc1cccc(-c2cc(-c3ccc(NC(C)=O)cc3)no2)c1 [ST-3-001, N-(4-(5-(3-methoxyphenyl)isoxazole-3-yl)phenyl)acetamide]
- binding of TM4SF5 to cholesterol (TM4SF5): not affected
- binding between TM4SF5 and SLAMF7 (TM4SF5 and SLAMF7; [1]): did not decrease but rather showed an increasing trend

Structure (SMILES): CC(=O)Nc1ccc(-c2cc(-c3ccc(O)cc3)no2)cc1 [ST-5-001, N-(4-(3-(4-hydroxyphenyl)isoxazole-5-yl)phenyl)acetamide]
- IC50 (TM4SF5): 6.15 µM
- binding of TM4SF5 to cholesterol (TM4SF5): inhibited
- binding between TM4SF5 and SLAMF7 (TM4SF5 and SLAMF7; 2.5 µM, 24 hours, SNU761 (FIG. 13j)): inhibited

Structure (SMILES): Cc1ccc(C(=O)Nc2ccc(-c3cc(-c4ccc(O)cc4)no3)cc2)cc1 [ST-5-002, N-(4-(3-(4-hydroxyphenyl)isoxazole-5-yl)phenyl)-4-methylbenzamide]
- IC50 (TM4SF5): 0.787 µM
- binding of TM4SF5 to cholesterol (TM4SF5): inhibited
- binding between TM4SF5 and SLAMF7 (TM4SF5 and SLAMF7; [1]): decreased
